Experimental data from patent US20250135042A1, “Perfluorocarbon-Containing Contrast Agent for Use in MRI Imaging of Body Cavities” (University of Pittsburgh - Of the Commonwealth System of …, priority 2023, published 2025).

What was measured:
[1] = 1H relaxivity of serial two-fold dilutions in tubes, from T1 weighted images; type: physicochemical; conditions: 7 Tesla, 37° C.
Method: FIGS. 2A and 2B: Graphical plots and T1 weighted images of individual tubes containing serial two-fold dilutions of Gadobutrol without ≥10% w/v PFC emulsion (FIG. 2A) or with ≥10% w/v PFC emulsion (FIG. 2B) display that ≥10% PFC emulsion diminishes the ^1H relaxivity of Gadobutrol from 3.95 L/mmol/s (FIG. 2A) to 2.05 L/mmol/s (FIG. 2B) at 7 Tesla scanner. T1 relaxation rate of water protons (R1=1/T1) was calculated from the slope of the line plotted by computing T1 relaxation time from T1 weighted images acquired at identical magnetic field strength of 7 Tesla at 37° C.
While gadolinium chelates are characterized by longitudinal and transverse relaxivity, denoted r1 and r2, respectively, (sensitivity to improve image contrast) gadolinium chelates are generally referred to as T1 agents owing to their larger effect on tissue T1 than on T2 for positive image contrast in T1-weighted images.

[2] = Stokes-Einstein radius; type: physicochemical

O=C([O-])CN1CCN(CC(=O)[O-])CCN([C@H](CO)[C@H](O)CO)CCN(CC(=O)[O-])CC1.[Gd+3] (racemic) [Gadobutrol, gadobutrol]
1H relaxivity of Gadobutrol ([1]; with ≥10% w/v PFC emulsion): 2.05 L/mmol/s
1H relaxivity of Gadobutrol ([1]; without ≥10% w/v PFC emulsion): 3.95 L/mmol/s
Stokes-Einstein radius (median for the emulsion particles) [2]: 0.4 nm
